The values that follow are results of earlier work, collected in patent US20080207601A1, “Methods of and Compositions For the Prevention of Anxiety, Substance Abuse, and Dependence” (Hythiam , Inc., priority 2005, published 2008).

The conditions of data set [1]: in vivo.
Test in data set [2]: not given
This is another data set of the same source.

The test system of the next data set is allopregnanolone. Conditions: clinical studies.
For data set [3] the following is noted: as much as.

Take `N[C@@H]1C[C@H]1c1ccccc1` (racemic) [TRANYLCYPROMINE]: in data set [1], the “time in which the drug is excreted” value was 24 h. In the case of `COc1ccc2c3c1O[C@H]1[C@@H](O)CC[C@H]4[C@@H](C2)N(C)CC[C@@]341` [DIHYDROCODEINE], the “potency relative to codeine” value (in vivo) was “Dihydrocodeine is approximately twice as potent as codeine; this is”. For `C[C@]12C=CC(=O)N[C@@H]1CC[C@@H]1[C@@H]2CC[C@]2(C)[C@@H](C(=O)Nc3cc(C(F)(F)F)ccc3C(F)(F)F)CC[C@@H]12` [Dutasteride, (5α,17β)-N-{2,5 bis(trifluoromethyl)phenyl}-3-oxo-4-azaandrost-1-ene-17-carboxamide], the “adverse effects compared with therapeutic dose of 0.5 mg” value in data set [2] (daily doses of 5 mg, 60 subjects, 6 months) is “subjects for 6 months with no additional adverse effects to those”. For the same molecule, the safety concerns result in data set [2] (single doses up to 40 mg (80 times the therapeutic dose) for 7 days, volunteer studies) is on record as “without significant safety concerns. In a clinical study, daily doses”. As for `CNCCC(Oc1ccc(C(F)(F)F)cc1)c1ccccc1` (centres unmarked) [Fluoxetine], in the data set with allopregnanolone, the “brain and cerebrospinal fluid content of allopregnanolone” value is “increase”. Regarding `CCCC(C)(COC(N)=O)COC(N)=O` [MEPROBROMATE], the “ingested amount with reported survival” value in data set [3] is “much as 40 g”.

For the molecule `COc1cccc(C2(O)CCCCC2CN(C)C)c1` (centres unmarked) [TRAMADOL], where the note is “IV/IM route”, the “potency relative to morphine” value was “Tramadol is approximately 10% as potent as morphine, when given”. Regarding `CN1C(=O)CN=C(c2ccccc2)c2cc(Cl)ccc21` [diazepam], the “effect on the positive modulation of 3 μM flumazenil induced by ethanol withdrawal” value in the data set with GABAA receptors (10 μM diazepam substituted for ethanol) is listed as “negated the positive modulation”. For the molecule `CC(=O)[C@H]1CC[C@H]2[C@@H]3CC[C@@H]4C[C@@H](O)CC[C@]4(C)[C@H]3CC[C@]12C` [epipregnanolone], the “effect on potentiation of GABAA receptor function by allopregnanolone and alphaxalone” value with GABAA receptor is recorded as “inhibited”.

On to `CCOC(=O)c1ncn2c1CN(C)C(=O)c1cc(F)ccc1-2` [flumazenil, ethyl 8-fluoro-5,6-dihydro-5-methyl-6-oxo-4H-imidazo-[1,5-a][1,4]benzodiazepine-3-carboxylate], for which the “modulation of the GABA evoked Cl-current” value in the data set with GABAA receptors (3 μM flumazenil, ethanol withdrawn cells) is “potentiates”.

Turning to `CC(=O)[C@H]1CC[C@H]2[C@@H]3CC[C@H]4C[C@@H](O)CC[C@]4(C)[C@H]3CC[C@]12C` [isopregnanolone], the “effect on potentiation of GABAA receptor function by allopregnanolone and alphaxalone” value in the data set on GABAA receptor is recorded as “inhibited”.
